Measurements as given in PubChem BioAssay AID248 (DTP/NCI, 2004).
Values joined by “and” are separate entries in the source; they are usually repeats but may differ in a detail not shown here. Identical values can stand only once. Toxic doses and inconclusive results are not listed.

Tested on: L1210 leukemia ip in BDF1 mice, survival T/C
Assay: NCI In Vivo Anticancer Drug Screen. Data for tumor model L1210 Leukemia (intraperitoneal) in B6D2F1 (BDF1) mice
Conditions: endpoint: mean survival time, higher = longer survival
Procedure, shortened: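 Transplanted-tumor mice were given test agent; controls received vehicle only. Survival readings from the two groups were divided (treated over control).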

[1] = dose: 400.0 mg/kg/injection, schedule: Q01DX001 (ip), vehicle: carboxymethylcellulose (CMC)
[2] = dose: 100.0 mg/kg/injection, schedule: Q01DX001 (ip), vehicle: other
[3] = dose: 100.0 mg/kg/injection, schedule: Q01DX009 (ip), vehicle: saline with Tween-80
[4] = dose: 200.0 mg/kg/injection, schedule: Q01DX009 (ip), vehicle: saline with Tween-80
[5] = dose: 400.0 mg/kg/injection, schedule: Q01DX009 (ip), vehicle: saline with Tween-80
[6] = dose: 75.0 mg/kg/injection, schedule: Q01DX001 (ip), vehicle: saline
[7] = dose: 100.0 mg/kg/injection, schedule: Q04DX003 (ip), vehicle: saline
[8] = dose: 200.0 mg/kg/injection, schedule: Q04DX003 (ip), vehicle: saline
[9] = dose: 400.0 mg/kg/injection, schedule: Q04DX003 (ip), vehicle: saline
[10] = dose: 100.0 mg/kg/injection, schedule: Q01DX009 (ip), vehicle: Klucel (hydroxypropylcellulose) (HPC)
[11] = dose: 100.0 mg/kg/injection, schedule: Q04DX003 (ip), vehicle: Klucel (hydroxypropylcellulose) (HPC)
[12] = dose: 200.0 mg/kg/injection, schedule: Q01DX009 (ip), vehicle: Klucel (hydroxypropylcellulose) (HPC)
[13] = dose: 200.0 mg/kg/injection, schedule: Q04DX003 (ip), vehicle: Klucel (hydroxypropylcellulose) (HPC)
[14] = dose: 100.0 mg/kg/injection, schedule: Q01DX001 (ip), vehicle: saline
[15] = dose: 200.0 mg/kg/injection, schedule: Q01DX001 (ip), vehicle: saline
[16] = dose: 400.0 mg/kg/injection, schedule: Q01DX001 (ip), vehicle: saline

## c1nc(SC2CCCC2)c2[nH]cnc2n1
dose: 5.0 mg/kg/injection, schedule: Q01DX Z (ip), vehicle: carboxymethylcellulose (CMC)
  T/C: 106 % of control
dose: 10.0 mg/kg/injection, schedule: Q01DX Z (ip), vehicle: carboxymethylcellulose (CMC)
  T/C: 103 % of control
dose: 10.0 mg/kg/injection, schedule: Q01DX Z (oral), vehicle: carboxymethylcellulose (CMC)
  T/C: 108 % of control
dose: 21.0 mg/kg/injection, schedule: Q01DX Z (ip), vehicle: carboxymethylcellulose (CMC)
  T/C: 112 % of control
dose: 21.0 mg/kg/injection, schedule: Q01DX Z (oral), vehicle: carboxymethylcellulose (CMC)
  T/C: 108 % of control
dose: 25.0 mg/kg/injection, schedule: Q01DX009 (ip), vehicle: carboxymethylcellulose (CMC)
  T/C: 115 % of control
dose: 42.0 mg/kg/injection, schedule: Q01DX Z (ip), vehicle: carboxymethylcellulose (CMC)
  T/C: 112 % of control
dose: 42.0 mg/kg/injection, schedule: Q01DX Z (oral), vehicle: carboxymethylcellulose (CMC)
  T/C: 106 % of control
dose: 42.5 mg/kg/injection, schedule: Q01DX Z (ip), vehicle: carboxymethylcellulose (CMC)
  T/C: 122 % of control
dose: 50.0 mg/kg/injection, schedule: Q01DX009 (ip), vehicle: carboxymethylcellulose (CMC)
  T/C: 119 % of control
dose: 84.0 mg/kg/injection, schedule: Q01DX Z (oral), vehicle: carboxymethylcellulose (CMC)
  T/C: 150 % of control
dose: 85.0 mg/kg/injection, schedule: Q01DX Z (ip), vehicle: carboxymethylcellulose (CMC)
  T/C: 163 % of control
dose: 176.0 mg/kg/injection, schedule: Q01DX001 (ip), vehicle: carboxymethylcellulose (CMC)
  T/C: 98 % of control
dose: 264.0 mg/kg/injection, schedule: Q01DX001 (ip), vehicle: carboxymethylcellulose (CMC)
  T/C: 100 % of control
dose: 340.0 mg/kg/injection, schedule: Q01DX Z (ip), vehicle: carboxymethylcellulose (CMC)
  T/C: 110 % of control
dose: 340.0 mg/kg/injection, schedule: Q01DX Z (oral), vehicle: carboxymethylcellulose (CMC)
  T/C: 152 % of control
[1]
  T/C: 93 % of control

## CCCCCOC(=O)c1ccc(C)s1
dose: 100.0 mg/kg/injection, schedule: Q01DX001 (ip), vehicle: carboxymethylcellulose (CMC)
  T/C: 90 % of control
dose: 200.0 mg/kg/injection, schedule: Q01DX001 (ip), vehicle: carboxymethylcellulose (CMC)
  T/C: 101 % of control
[1]
  T/C: 98 % of control

## CC(=O)C1CCC2C3CCC4=CC(=O)CCC4(C)C3(C)C(=O)CC12C (configuration not stated)
dose: 50.0 mg/kg/injection, schedule: Q01DX001 (sc), vehicle: steriod suspending solution
  T/C: 102 % of control and 105 % of control
dose: 100.0 mg/kg/injection, schedule: Q01DX001 (sc), vehicle: steriod suspending solution
  T/C: 102 % of control and 107 % of control
dose: 200.0 mg/kg/injection, schedule: Q01DX001 (sc), vehicle: steriod suspending solution
  T/C: 105 % of control
dose: 400.0 mg/kg/injection, schedule: Q01DX001 (sc), vehicle: steriod suspending solution
  T/C: 105 % of control and 96 % of control

## O=C(CC(O)c1ccccc1)Nc1cccnc1 (configuration not stated)
[2]
  T/C: 96 % of control

## O=Cc1ccc(O)c(Br)c1
[3]
  T/C: 100 % of control
[4]
  T/C: 109 % of control
[5]
  T/C: 88 % of control

## C[Si](C)(O)CCl
[6]
  T/C: 102 % of control

## O=C(C1C2CCC(CC2)C1C(=O)N1CCOCC1)N1CCOCC1 (configuration not stated)
[7]
  T/C: 100 % of control
[8]
  T/C: 100 % of control
[9]
  T/C: 103 % of control

## CCCCCOC(=O)Nc1cccc(OC(=O)NC)c1
[3]
  T/C: 105 % of control
[4]
  T/C: 96 % of control
[5]
  T/C: 97 % of control

## CCOC(=O)COc1ccc([N+](=O)[O-])cc1
dose: 100.0 mg/kg/injection, schedule: Q01DX001 (ip), vehicle: Klucel (hydroxypropylcellulose) (HPC)
  T/C: 112 % of control
[10]
  T/C: 97 % of control and 98 % of control
dose: 100.0 mg/kg/injection, schedule: Q04DX002 (ip), vehicle: Klucel (hydroxypropylcellulose) (HPC)
  T/C: 96 % of control and 101 % of control
[11]
  T/C: 106 % of control
dose: 200.0 mg/kg/injection, schedule: Q01DX001 (ip), vehicle: Klucel (hydroxypropylcellulose) (HPC)
  T/C: 98 % of control
[12]
  T/C: 95 % of control and 105 % of control
dose: 200.0 mg/kg/injection, schedule: Q04DX002 (ip), vehicle: Klucel (hydroxypropylcellulose) (HPC)
  T/C: 96 % of control and 103 % of control
[13]
  T/C: 100 % of control
dose: 400.0 mg/kg/injection, schedule: Q01DX001 (ip), vehicle: Klucel (hydroxypropylcellulose) (HPC)
  T/C: 106 % of control
dose: 400.0 mg/kg/injection, schedule: Q01DX009 (ip), vehicle: Klucel (hydroxypropylcellulose) (HPC)
  T/C: 93 % of control and 101 % of control
dose: 400.0 mg/kg/injection, schedule: Q04DX002 (ip), vehicle: Klucel (hydroxypropylcellulose) (HPC)
  T/C: 92 % of control and 102 % of control
dose: 400.0 mg/kg/injection, schedule: Q04DX003 (ip), vehicle: Klucel (hydroxypropylcellulose) (HPC)
  T/C: 101 % of control

## C[N+](C)(C)CCO
dose: 50.0 mg/kg/injection, schedule: Q04DX003 (ip), vehicle: none
  T/C: 99 % of control and 105 % of control
dose: 100.0 mg/kg/injection, schedule: Q04DX003 (ip), vehicle: none
  T/C: 97 % of control and 102 % of control
[7]
  T/C: 95 % of control
dose: 200.0 mg/kg/injection, schedule: Q04DX003 (ip), vehicle: none
  T/C: 96 % of control and 99 % of control
[8]
  T/C: 96 % of control
[9]
  T/C: 106 % of control

## C(COCCOCC1CO1)OCCOCC1CO1 (configuration not stated)
dose: 62.0 mg/kg/injection, schedule: Q01DX Z (ip), vehicle: saline
  T/C: 110 % of control
dose: 125.0 mg/kg/injection, schedule: Q01DX Z (ip), vehicle: saline
  T/C: 117 % of control
dose: 250.0 mg/kg/injection, schedule: Q01DX Z (ip), vehicle: saline
  T/C: 116 % of control
dose: 500.0 mg/kg/injection, schedule: Q01DX Z (ip), vehicle: saline
  T/C: 108 % of control

## CC(C)(CO)c1ccccc1
[14]
  T/C: 104 % of control
[15]
  T/C: 104 % of control
[16]
  T/C: 107 % of control

## C/C=C/C(O)(C(=O)OCC)C(C)C (configuration not stated)
[14]
  T/C: 111 % of control
[15]
  T/C: 96 % of control
[16]
  T/C: 100 % of control

## CC(C)(C)OC(=O)NCC(=O)O
dose: 50.0 mg/kg/injection, schedule: Q01DX009 (ip), vehicle: saline
  T/C: 93 % of control
dose: 75.0 mg/kg/injection, schedule: Q01DX001 (ip), vehicle: acetone
  T/C: 93 % of control
dose: 100.0 mg/kg/injection, schedule: Q01DX009 (ip), vehicle: saline
  T/C: 96 % of control
[7]
  T/C: 97 % of control
dose: 150.0 mg/kg/injection, schedule: Q01DX001 (ip), vehicle: acetone
  T/C: 99 % of control
dose: 200.0 mg/kg/injection, schedule: Q01DX009 (ip), vehicle: saline
  T/C: 93 % of control
[8]
  T/C: 106 % of control
dose: 300.0 mg/kg/injection, schedule: Q01DX001 (ip), vehicle: acetone
  T/C: 103 % of control

## O=S1(=O)CCc2ccccc21
[14]
  T/C: 97 % of control
[15]
  T/C: 111 % of control
[16]
  T/C: 104 % of control

## C(=N/N=C/c1cccnc1)/c1cccnc1
[2]
  T/C: 104 % of control
dose: 200.0 mg/kg/injection, schedule: Q01DX001 (ip), vehicle: other
  T/C: 110 % of control
dose: 400.0 mg/kg/injection, schedule: Q01DX001 (ip), vehicle: other
  T/C: 110 % of control

## Cc1cc(Cl)nc(Cl)c1C#N
[10]
  T/C: 101 % of control
[11]
  T/C: 100 % of control
[12]
  T/C: 97 % of control
[13]
  T/C: 89 % of control

## O=C1c2cccc3cccc(c23)C(=O)N1c1ncn[nH]1
dose: 50.0 mg/kg/injection, schedule: Q01DX001 (ip), vehicle: saline
  T/C: 94 % of control
[14]
  T/C: 107 % of control
[16]
  T/C: 102 % of control

## CC(=O)N/N=C/c1cccc([N+](=O)[O-])c1
dose: 50.0 mg/kg/injection, schedule: Q01DX009 (ip), vehicle: saline with Tween-80
  T/C: 102 % of control
[3]
  T/C: 97 % of control
[4]
  T/C: 94 % of control

## O=c1[nH]c(Cl)ncc1F
[6]
  T/C: 95 % of control
dose: 150.0 mg/kg/injection, schedule: Q01DX001 (ip), vehicle: saline
  T/C: 96 % of control
dose: 300.0 mg/kg/injection, schedule: Q01DX001 (ip), vehicle: saline
  T/C: 102 % of control

## Cc1[nH]cnc1C(c1ccccc1)c1ccccc1
dose: 100.0 mg/kg/injection, schedule: Q01DX001 (ip), vehicle: saline with Tween-80
  T/C: 108 % of control
dose: 200.0 mg/kg/injection, schedule: Q01DX001 (ip), vehicle: saline with Tween-80
  T/C: 100 % of control
